Entries after “also recorded” stand apart in the source; their conditions may differ.
How the values were obtained:
[1] = system: cerebral cortical cultures; experiment: neuroprotection against NMDA toxicity in cerebral cortical cultures; format: cell-based, newborn rats; details: NMDA 10 μM
ADNF III mRNA = experiment: northern blot of ADNF III mRNA in brain of ApoE-deficient mice; format: in vivo; details: 28-day-old ApoE-deficient mice, daily injections for the first two weeks of life
Protocol: FIG. 9 illustrates northern blot identification of ADNF III mRNA. RNA was extracted from the brains of 28-day-old apolipoprotein E-deficient mice (E) treated with saline for the first two weeks of life or with NAP (E+N), control mice (C) were treated with saline. RNA was subjected to northern blot hybridization with a PCR-labeled ADNF III specific probe (α-^32P-dCTP, Amersham, 3000 Ci/mmol) (see FIG. 2) in comparison to an actin-specific probe (Gozes et al., Mol. Brain Res. 2:137-148 (1987)).
b. Hybridization: The blots were prehybridized for two hours at 55° C. and were hybridized with a specific complementary DNA probe for the mouse ADNF III cDNA (a PCR product obtained using the following primers: 61-79 and the complementary strand from position 438-455, which are described in detail below). The labeled probe was prepared by random priming and incubated with the blot for 16 hours at 55° C. Prehybridization and hybridization solutions (12 ml/blot) contained the following: 50% formamide (deionized using mixed bed resin, Sigma), 50 mM sodium phosphate buffer (pH 6.5), 0.8 M NaCl, 1 mM EDTA, 5× Denhart's reagent (0.05% BSA, 0.05% polyvinylpyrrolidone and 0.05% Ficoll), 0.1% SDS and […] poly(A). The labeled probe was dissolved in 12 ml of hybridization solution and added to the prehybridization mixture. […]

[2] = system: cerebral cortical cultures; experiment: neuroprotection against gp120 toxicity in cerebral cortical cultures; format: cell-based, newborn rats; details: 1 pM gp120 (RFII isolate)
[3] = system: cerebral cortical cultures; experiment: protection from naturally occurring cell death in cerebral cortical cultures; format: cell-based, newborn rats; details: FIG. 6C, no toxin added
ApoE-deficient mice = experiment: water maze, ApoE-deficient and control mice after treatment for the first two weeks of life; format: in vivo
Protocol: Two daily water maze trials were performed on three week-old animals. Groups tested were: 1. control animals injected with vehicle for the first two weeks of life (35 animals of six different litters, with 5-7 animals from each litter, open circles); 2. ApoE-deficient animals injected with vehicle for the first two weeks of life (18 animals derived from three different litters, with 5-7 pups per litter, closed circles); 3. control animals chronically treated with NAP for the first two weeks of life (14 animals derived from three different litters, open triangles); and 4. ApoE-deficient mice chronically treated with NAP for the first two weeks of life (19 animals derived from three different litters, open rectangles). The figure depicts latency (of the second daily trial), measured in seconds, to reach the hidden platform 0.5 min. after being on it. Tests were performed over five consecutive days, and then with a two day delay tested for one additional day. ApoE=ApoE-deficient animals. There was no differences between animals treated with vehicle and untreated animals (data not shown). Statistical comparisons shown were made: 1. between ApoE-deficient and controls; 2. between ApoE-treated with NAP and ApoE-treated with vehicle; and 3. between control-treated with NAP and control-treated with vehicle (*P<0.001; **P<0.03; ***P<0.002). […]

[4] = system: choline acetyl transferase; experiment: brain ChAT (choline acetyl transferase) activity in ApoE-deficient mice; format: in vivo; details: daily subcutaneous injections from birth to 14 days, measured at 21 days
Protocol: The graph depicts incorporation of radio-labeled choline into acetylcholine. Experiments were conducted as described. Apo-E deficient mice are designated: ApoE; 100% activity in the control (C57B6) mice indicated 669758.4 pmole/mg protein/min. As the experiments were repeated 3-5 times the results were standardized against the control calibrated at 100% per each experiment. ApoE-deficient mice daily injected with peptides are designated ADNF-14, ADNF-9, and NAP, respectively.
ChAT activity was measured according to published procedures (Formum et al., Neurochem. 24:407-409 (1975)). Brains were homogenized with 10 volumes of 50 mM phosphate buffer containing 300 mM NaCl, 20 mM EDTA, and 0.5% triton. The homogenates were centrifuged at 12,000×g for 15 min., and […] of supernatant was mixed with […] of a solution of […] ^14C-acetyl CoA ([…] NEN), 20 mM acetylcholine, 1.6 mM choline chloride, 0.25 mM eserine, and phosphate buffer. Incubation was 15 min. at 37° C. The reaction was terminated and radioactivity was measured in a beta-counter. • 21. Apolipoprotein E (ApoE) Deficient Mouse Model
ApoE knockout mice and normal controls were a gift from the late Prof. Shlomo Eisenberg of Tel Aviv University, originally provided by Dr. J. L. Breslow (Plump et al., Cell 71:343-353 (1992)). The ApoE knockout mice were obtained from embryonic stem cells OLA 129 in C57B6×FVB mice (as described). Age-matched controls were inbred C57B6 mice. Groups of mouse pups were treated from birth until the age of 14 days. Daily subcutaneous injections included: […] saline (days 1 through 4), […] saline (days 5 through 10) and […] saline (days 11-14).
ChAT activity was measured according to published procedures (Formum et al., Neurochem. 24:407-409 (1975)).

Asn-Ala-Pro-Val-Ser-Ile-Pro-Gln [NAP]
concentrations of significant neuroprotection against NMDA [1]: > 10^−16 M
ADNP mRNA content (ADNF III mRNA): did not change
concentrations of significant neuroprotection against gp120 [2]: 10^−15-10^−10 M
protection from naturally occurring cell death [3]: protected neurons
water maze performance (latency to hidden platform, second daily trial) (ApoE-deficient mice; ApoE-deficient mice, treated first two weeks of life, tested from 21 days): performed as well as control animals; also recorded: ameliorated
water maze performance (latency to hidden platform, second daily trial) (ApoE-deficient mice; control animals chronically treated for the first two weeks of life): improved their performance
brain ChAT activity compared with inbred C57B6 mice [4]: not significantly different; also recorded: indistinguishable from controls
brain ChAT activity compared with vehicle-treated or untreated ApoE-deficient mice [4]: significantly improved

From patent US7264947B2, “Activity dependent neurotrophic factor III (ADNF III)” (United States of America, as represented by the Secretary …, priority 1997, dated 2007)
